Test results published in US7405238B2, “Pharmacological inducement of the fed mode for enhanced drug administration to the stomach” (priority 1999, dated 2008).
Several values for one entry are separate records, joined by “and”; a condition that tells them apart may be missing. Equal entries are not always repeated. Peptide text beside a SMILES is read from it.

Legend:
[1] = test system: female beagles; experiment: Retention time of BaSO4 swelling tablet in stomach, dogs fasted 24 hours, Example 3; assay type: in vivo, dog; details: mean of five dogs fasted 24 hours
Experimental: (§1) Test formulations were administered in various regimens. In some of the tests, the dogs were given an immediate release (IR) regimen in the form of a single gelatin capsule containing a test species in a selected amount. A simulated controlled release (SCR) regimen was used in other tests by administering a gelatin capsule containing a test species in a selected amount every half hour. A third regimen was a controlled release (CR) regimen, in which the test species was incorporated in a compressed tablet of POLYOX 303 and magnesium stearate. […] The barium tablets were visualized every thirty minutes by fluoroscopy until they left the stomach. The time of the last observation of the 800 mg tablet in the stomach was recorded as the retention time. The test group also included a negative control using a fasted dog with no test formulations administered, and a positive control using a dog that was fed a standard 50 g meal but no test formulations.
(§2) Further tests were performed on a second group of dogs, consisting of five female beagles one year in age and weighing 5-7 kg each. The test protocols were the same as those in Example 1 except that the dogs were fasted for 24 hours before each test, and the test results are listed in Table II below, which lists the mean of the results observed among the five dogs as well as the range among the dogs for each test.
Further tests were performed on the second group of dogs, consisting of five female beagles one year in age and weighing 5-7 kg each. The test protocols were the same as those in Example 2, except that the controls were replaced by a negative control consisting of AVICEL (microcrystalline cellulose, FMC Corporation, Philadelphia, Pa., USA), administered as a simulated controlled release at 10 mg every half hour. The test results are listed in Table III below, which lists the mean of the results observed among the five dogs as well as the range among the dogs for each test.

[2] = test system: male beagles; experiment: Retention time of BaSO4 swelling tablet in stomach, dogs, Example 1; assay type: in vivo, dog; details: 7.94 × 19.05 mm BaSO4 tablet, mean of four dogs
Experimental: (§3) Four dogs, all male beagles ranging in age from 10 months to 21 months and weighing from 6 kg to 10 kg each, were housed individually and each was fed a 1:1 (weight ratio) wet:dry mixture of food weighing 300 g once daily at 3:00 p.m. Water was provided ad libitum. The dogs were fasted for 6-8 hours overnight, preceded by the removal of feces and any uneaten food.
as §1
The test results in terms of the retention times in hours are shown in Table I, which lists the means of the results observed among the four dogs as well as the range among the dogs for each test.

[3] = test system: female beagles; experiment: Retention time of BaSO4 swelling tablet in stomach, dogs fasted 24 hours, Example 2; assay type: in vivo, dog; details: mean of five dogs fasted 24 hours
Experimental: as §3, §1, §2

[4] = test system: dogs; details: administered in excess of 1 g; cited from earlier work

COC(=O)[C@H](Cc1ccccc1)NC(=O)[C@@H](N)CC(=O)O [Aspartame] (H-Asp-Phe-OMe)
Retention Time (h) Mean ([1]; 200 mg, IR): 3.8 ± 2.3 h

β-Casomorphin: peptide released from β-casein; bovine sequence Tyr-Pro-Phe-Pro-Gly-Pro-Ile; species tested not stated (YPFPGPI; printed: Tyr-Pro-Phe-Pro-Gly-Pro-Ile)
Retention Time (h) Mean ([2]; 25 mg, IR): 2.6 ± 1.1 h
Retention Time (h) Mean ([1]; 10 mg, IR): 3.5 ± 2.1 h

NC(Cc1c[nH]c2ccccc12)C(=O)NC(Cc1c[nH]c2ccccc12)C(=O)O (stereo not drawn) [Trp-Trp]
Retention Time (h) Mean ([2]; 200 mg, IR): 3.1 ± 3.9 h and 2.1 ± 1.8 h
Retention Time (h) Mean ([2]; SCR, 20 mg every thirty minutes): 2.8 ± 0.3 h
Retention Time (h) Mean ([3]; SCR, 5 mg every thirty minutes): 4.6 ± 1.5 h
Retention Time (h) Mean ([3]; SCR, 10 mg every thirty minutes): 2.4 ± 1.8 h
Retention Time (h) Mean ([3]; SCR, 40 mg every thirty minutes): 3.4 ± 1.9 h
Retention Time (h) Mean ([1]; SCR, 0.5 mg every thirty minutes): 4.6 ± 1.7 h
Retention Time (h) Mean ([1]; SCR, 2 mg every thirty minutes): 4.2 ± 1.1 h

CN(C)C(=O)C(CCN1CCC(O)(c2ccc(Cl)cc2)CC1)(c1ccccc1)c1ccccc1 [Loperamide, 4-(p-chlorophenyl)-4-hydroxy-N,N-dimethyl-α,α-diphenyl-1-piperidinebutyramide, reference compound]
Retention Time (h) Mean ([2]; 0.1 mg, IR): 2.5 ± 1.3 h

O=C(O)CCCCC1CCSS1 (stereo not drawn) [α-Lipoic acid]
Retention Time (h) Mean ([2]; 150 mg, IR): 2.8 ± 1.6 h

N[C@@H](Cc1c[nH]c2ccccc12)C(=O)O [tryptophan]
effect on gastric emptying [4]: slowed gastric emptying

glycine
effect on gastric emptying [4]: slowed gastric emptying

OC[C@@H](O)[C@H](O)[C@@H](O)CO [Xylitol, CH2OH—(CHOH)3—CH2OH]
Retention Time (h) Mean ([2]; 600 mg, IR): 3.1 ± 1.5 h

CCCCC(CC)COC(=O)CC(C(=O)OCC(CC)CCCC)S(=O)(=O)O (stereo not drawn) [Na docusate, reference compound]
Retention Time (h) Mean ([2]; 200 mg, IR): 2.6 ± 1.4 h

N=C(N)NCCC[C@H](N)C(=O)O [L-Arginine]
Retention Time (h) Mean ([2]; 300 mg, CR (POLYOX 303 tablet)): 3.6 ± 1.6 h
Retention Time (h) Mean ([2]; 400 mg, IR): 1.6 ± 0.2 h
effect on gastric emptying [4]: slowed gastric emptying

CCCCCCCCCCCCCCCC[n+]1ccccc1.[Cl-] [Cetylpyridinium chloride, reference compound]
Retention Time (h) Mean ([3]; 20 mg, IR): 4.5 ± 2.6 h
Retention Time (h) Mean ([3]; 50 mg, IR): 4.0 ± 1.3 h
Retention Time (h) Mean ([3]; 100 mg, IR): 3.2 ± 0.9 h
Retention Time (h) Mean ([1]; 5 mg, IR): 4.0 ± 2.8 h
Retention Time (h) Mean ([1]; 20 mg, IR): 4.45 ± 2.6 h
